Type in all cases: cell-based, influenza A virus
Assay [1] has as its system influenza A/Puerto Rico/8/34 (PR/8, H1N1). Set-up: inhibition of hemagglutination: dose or concentration left out as unconfirmed.
Assay [2] has the same test system.
The test system of assay [3] is Influenza A/Philippines X-79 (H3N2). As to conditions: 74,000 nM monovalent LSTc; data not shown.

Results on 1 substance are retold here after US9408890B2, “Multivalent liposome formulations” (priority 2013, dated 2016).

For the substance “sialylneolacto-N-tetraose c [Monovalent LSTc]”, the inhibition of hemagglutination result in assay [1] is recorded as “did not inhibit hemagglutination”. Also, the “HAI Titer” value in assay [1] (four HA units of virus, human RBCs, reciprocal of last liposome dilution giving non-agglutinated RBCs) is reported as “No inhibition”. Further, the “inhibition of PR/8 infection of MDCK cells (FIG. 3A)” value in assay [2] was “did not significantly inhibited infection at high concentrations”. Besides, the “inhibition of infectivity of PR/8” value in assay [2] (74,000 nM monovalent LSTc) is on record as “did not inhibit the infectivity”. Moreover, in assay [3], the “inhibition of infectivity of Philippines” value was “did not inhibit the infectivity”.
